{"source": "patent US7947668B2", "about": "“Aminoalkyl sterol compounds having an anti-tumoral and neuroprotective activity” (Institut National de la Sante et de la Recherche Medicale, priority 2002, dated 2011)", "key": {"[1]": {"test_system": "T lymphocytes originating from BALB/c mouse spleens", "test": "Proliferation of T lymphocytes (tritiated thymidine incorporation)", "format": "cell-based", "details": "C57BL/6 dendritic cells in contact with BALB/c T lymphocytes", "experimental": "C57BL/6 mouse monocytes were collected as indicated in example 48.1. The dendritic cells were obtained as indicated in example 9. After transformation into CDs with the test compound, the cells are treated with an antimitotic agent (mitomycin C at 0.0006 mg/ml) and incubated for 30 minutes at 37° C., in order to block DNA synthesis in the CDs. After this treatment, the cells are washed twice with RPMI 1640 medium supplemented with 10% fetal calf serum.\nBALB/c mouse spleens were also collected and treated as described for the preparation of the C57BL/6 mouse monocytes. The nonadherent cells, which contain the T lymphocytes, are recovered and added to the C57BL/6 mouse dendritic cells. On the fourth day of contact of the cells, tritiated thymidine is added. After incubation for 18 hours, the cells are lyzed with absolute alcohol. The precipitate is suspended in water and then filtered through a cellulose filter. The incorporation of thymidine is measured by scintillation counting (Packard Instrument, Meriden Conn., USA).\nThe adherent monocytes originating from mouse spleens obtained according to example 14.1 were treated with the abovementioned compound at variable doses. […] The lymphocyte proliferation is measured by measuring the incorporation of tritiated thymidine into the DNA."}, "[2]": {"test_system": "C57BL/6 mouse spleen monocytes", "test": "Dendritogenesis on C57BL/6 mouse spleen monocytes", "format": "cell-based", "details": "dose of 1 nM, 36 hours after the start of action", "experimental": "1) On C57BL/6 Mouse Spleen Monocytes\n5-week-old mice are sacrificed by cervical dislocation. They are then dissected. The spleens are removed under sterile conditions and then placed in a cold solution (4° C.) containing serum-free culture medium supplemented with antibiotics (streptomycin and penicillin). The spleens are ground in a sterile fume cupboard and then filtered through a 100 μm filter. The eluate is recovered and then centrifuged at 1000 rpm for 5 minutes at 4° C. The cell pellet is resuspended in phosphate-buffered saline (PBS) solution containing […], the purpose of which is to lyze the red blood cells. The suspension is centrifuged at 1000 rpm and the cells are then resuspended in PBS. The washing operation is performed twice. The final resuspension is performed in whole culture medium, and the cells are counted and distributed into six-well dishes at a density of 40 000 cells/ml. Four hours later, the adhering cells are washed vigorously with PBS in order to remove the cells that might remain attached to the adhering cells or to the culture dish.\nThe conversion was obtained with a dose of 1 nM, the photograph having been taken 36 hours after the start of action of the product. The test product is that of example 9. The appearance of cellular extensions is observed, which is one of the main characteristics of activated dendritic cells."}}, "data": [{"smiles": "CC(C)CCC[C@@H](C)[C@H]1CC[C@H]2[C@@H]3C[C@@H](NCCc4c[nH]cn4)[C@@]4(O)C[C@@H](O)CC[C@]4(C)[C@H]3CC[C@]12C", "note": "[Example 9, cholestane-3β,5α-diol-6β-N-[2-ethylamino(1H-imidazol-4-yl)]]", "values": [{"measurement": "stimulation of the T lymphocyte proliferation (factor)", "setting": "[1]", "result": 5}, {"measurement": "morphological changes on the mouse monocytes, conversion into dendritic cells", "setting": "[2]", "result": "conversion resulting in dendritic cells"}]}]}
